Measurements from ChEMBL document CHEMBL1126611, “Modulation of leukocyte genetic expression by novel purine nucleoside analogues. A new approach to antitumor and antiviral agents” (1993).

Experiments:
[1] = species on record: Mus musculus; assay: Mean survival time of San Angelo virus infected mice that died; survivors lived through 21 days; format: functional
[2] = system: Mus musculus; assay: Activity against Forest virus infection in mice after intraperitoneal administration of 100 mg/kg; format: functional
[3] = system: Mus musculus; assay: Mean survival time of Forest virus infected mice that died; survivors lived through 21 days after intraperitoneal administration of 50 mg/kg; format: functional
[4] = system: Mus musculus; assay: Mean survival time of San Angelo virus infected mice that died; survivors lived through 21 days after intraperitoneal administration of 50 mg/kg; format: functional
[5] = species on record: Mus musculus; assay: Activity against Forest virus infection in mice; format: functional
[6] = system: Mus musculus; assay: Activity against San Angelo virus infection in mice after intraperitoneal administration of 50 mg/kg; format: functional
[7] = system: Mus musculus; assay: Mean survival time of Forest virus infected mice that died; survivors lived through 21 days after oral administration of 200 mg/kg; format: functional
[8] = species on record: Mus musculus; assay: Activity against San Angelo virus infection in mice; format: functional
[9] = system: Mus musculus; assay: Activity against Forest virus infection in mice after oral administration of 200 mg/kg; format: functional
[10] = system: Mus musculus; assay: Mean survival time of San Angelo virus infected mice that died; survivors lived through 21 days after intraperitoneal administration of 25 mg/kg; format: functional
[11] = system: Mus musculus; assay: Activity against Forest virus infection in mice after intraperitoneal administration of 50 mg/kg; format: functional
[12] = system: Mus musculus; assay: Activity against San Angelo virus infection in mice after intraperitoneal administration of 100 mg/kg; format: functional
[13] = system: Mus musculus; assay: Activity against San Angelo virus infection in mice after intraperitoneal administration of 25 mg/kg; format: functional
[14] = system: Mus musculus; assay: Mean survival time of San Angelo virus infected mice that died; survivors lived through 21 days after intraperitoneal administration of 100 mg/kg; format: functional
[15] = system: Mus musculus; assay: Mean survival time of Forest virus infected mice that died; survivors lived through 21 days after intraperitoneal administration of 100 mg/kg; format: functional
[16] = species on record: Mus musculus; assay: Inhibition of […] murine melanoma artificial metastasis in lungs of C57BL/6j mice expressed as average of B16-F10 colonies in lungs from 6 or 7 mice on 18-19th days (no. of mice = 7); format: functional, Lung
[17] = species on record: Mus musculus; assay: Mean survival time of Forest virus infected mice that died; survivors lived through 21 days; format: functional
[18] = species on record: Mus musculus; assay: Inhibition of […] murine melanoma artificial metastasis in lungs of C57BL/6j mice expressed as average of B16-F10 colonies in lungs from 6 or 7 mice on 17th day (no. of mice = 6); format: functional, Lung
[19] = system: Rattus norvegicus; assay: Compound at a dose 100 mg/kg was administered to rat and Percent survivors after coronavirus infection in suckling rats.; format: functional
[20] = system: Mus musculus; assay: Mean survival time Forest virus infectedof mice that died; survivors lived through 21 days after intraperitoneal administration of 25 mg/kg; format: functional
[21] = system: Mus musculus; assay: Activity against Forest virus infection in mice after intraperitoneal administration of 25 mg/kg; format: functional
[22] = system: Mus musculus; assay: Mean survival time of San Angelo virus infected mice that died; survivors lived through 21 days after intraperitoneal administration of 10 mg/kg; format: functional
[23] = system: Mus musculus; assay: Activity against Forest virus infection in mice, ip; format: functional
[24] = system: Mus musculus; assay: Activity against San Angelo virus infection in mice after intraperitoneal administration of 10 mg/kg; format: functional
[25] = species on record: Mus musculus; assay: Mean survival time mice that died; survivors lived through 21 days; format: functional
[26] = system: Mus musculus; assay: Activity against Forest virus infection in mice after intraperitoneal administration of 200 mg/kg; format: functional
[27] = system: Mus musculus; assay: Mean survival time of Forest virus infected mice that died; survivors lived through 21 days after intraperitoneal administration of 200 mg/kg; format: functional

## Nc1nc2c(ccn2[C@@H]2O[C@H](CO)[C@@H](O)[C@H]2O)c(=O)[nH]1
[1]
  Mean survival: 7.9 days
[2]
  Survivors: 83%
[3]
  Mean survival: 6 days
[4]
  Mean survival: >21 days
[5]
  Survivors: 8%
[6]
  Survivors: 100%
[7]
  Mean survival: 8 days
[8]
  Survivors: 33%
[9]
  Survivors: 83%
[10]
  Mean survival: 9 days
[11]
  Survivors: 83%
[12]
  Survivors: 100%
[13]
  Survivors: 92%
[14]
  Mean survival: >21 days
[15]
  Mean survival: 6.5 days
[16]
  Mean: 0.17
[17]
  Mean survival: 7.4 days
[18]
  Mean: 0.14

## N#Cc1cn(C2O[C@H](CO)[C@@H](O)[C@H]2O)c2nc(N)nc(O)c12 (some centres undefined)
[2]
  Survivors: 50%
[5]
  Survivors: 8%
[15]
  Mean survival: 8.5 days
[17]
  Mean survival: 6 days

## Nc1nc(O)c2cc(Cl)n(C3O[C@H](CO)[C@@H](O)[C@H]3O)c2n1 (some centres undefined)
[1]
  Mean survival: 7.2 days
[2]
  Survivors: 92%
[19]
  Survivors: 92%
[3]
  Mean survival: >21 days
[20]
  Mean survival: 6 days
[4]
  Mean survival: >21 days
[21]
  Survivors: 92%
[6]
  Survivors: 100%
[22]
  Mean survival: 8 days
[23]
  Survivors: 8%
[8]
  Survivors: 18%
[24]
  Survivors: 58%
[10]
  Mean survival: >21 days
[11]
  Survivors: 100%
[13]
  Survivors: 100%
[15]
  Mean survival: 7 days
[25]
  Mean survival: 7 days
[17]
  Mean survival: 6.5 days

## Nc1nc(O)c2c(C(=O)O)cn(C3O[C@H](CO)[C@@H](O)[C@H]3O)c2n1 (some centres undefined)
[2]
  Survivors: 8%
[26]
  Survivors: 33%
[5]
  Survivors: 17%
[27]
  Mean survival: 6 days
[15]
  Mean survival: 8.1 days
[17]
  Mean survival: 6.8 days

## Cn1c(=S)n(C2O[C@H](CO)[C@@H](O)[C@H]2O)c2nc(N)nc(O)c21 (some centres undefined)
[19]
  Survivors: 58%

## Cn1c(=O)n(C2O[C@H](CO)[C@@H](O)[C@H]2O)c2nc(N)nc(O)c21 (some centres undefined)
[19]
  Survivors: 75%

## Nc1nc(=O)c2sc(=O)n([C@@H]3O[C@H](CO)[C@@H](O)[C@H]3O)c2[nH]1 [ISATORIBINE]
[19]
  Survivors: 83%
